Entries after “also recorded” stand apart in the source; their conditions may differ.

Data set [1] has as its system patients affected by polyarticular RA. The data set can be described thus: Evaluation of efficacy of therapies in course prior to treatment. On the set-up: key to Efficacy of present therapy: Nil; Scarce; Good; Excellent. To be noted: single cases. In kind it is in vivo, human. The source says:
(§1) With reference to each of the clinical cases taken into consideration, supplied below are the particulars relevant to diagnosis, evaluation of efficacy of therapies in course prior to treatment (Nil, Scarce, Good, Excellent), and finally the clinical observations after treatment with Somatostatin (SS) or with Placebo (PL).

The subject of data set [2] is patients affected by polyarticular RA (knee joint). The data set can be described thus: Double-blind trial versus placebo: clinical observations and side effects. In kind it is in vivo, human. To be noted: at the moment of administration or in the following days; 750 micrograms into knee joint. As to the method:
Clinical efficacy of Somatostatin was verified by means of a double-blind trial versus placebo.
17 patients affected by polyarticular RA were selected for the trial. Each patient was informed about the experimental nature of the treatment. The articular site chosen for the study was the knee.
In accordance with the double-blind procedure (Somatostatin versus placebo), 10 patients were treated with Somatostatin ("STILAMIN", 750 micrograms) injected inside the knee joint.
Clinical observations were carried out at time 0, each 10 minutes of the first hour, than at hourly intervals for 3 hours. A further evaluation was made after one week; during the period between the treatment and the evaluation on the seventh day, the patients filled out a table for selfevaluation. Parameters chosen were Ritchie's Index and Huskisson's Scale of Pain, evaluation of pain being made when walking, upon flexion and supine.
as §1

Where [3] appears, read: single drug in course prior to treatment.
Where [4] appears, read: Piroxicam 20 mg together with 6-alpha-methylprednisolone (8 mg or 4 mg).

As for `CC(C(=O)O)c1ccc(C(=O)c2ccccc2)s1` (centres unmarked) [Thiaprophenic Acid], in data set [1] (setting [3]), the “Efficacy of present therapy” value was “Nil and Scarce”.

Consider `C[C@H]1C[C@@H]2[C@H]([C@@H](O)C[C@@]3(C)[C@H]2CC[C@]3(O)C(=O)CO)[C@@]2(C)C=CC(=O)C=C12` [6-alpha-methylprednisolone], for which the “Efficacy of present therapy” value in data set [1] (setting [4]) and in data set [1] (setting [3]) was “Scarce” in each case.

`CN1C(C(=O)Nc2ccccn2)=C(O)c2ccccc2S1(=O)=O` [Piroxicam]: the “Efficacy of present therapy” value in data set [1] (setting [4]) and in data set [1] (setting [3]) was “Scarce” throughout.

Turning to `O=C(O)Cc1ccccc1Nc1c(Cl)cccc1Cl` [Diclofenac], in data set [1] (setting [3]), the “Efficacy of present therapy” value is reported as “Scarce”.

Take `COc1ccc2cc([C@H](C)C(=O)O)ccc2c1` [Naproxen]: the “Efficacy of present therapy” value in data set [1] (setting [3]) was “Good”; in data set [1] (single drug in course prior to treatment, listed as Naproxene) it was “Good and Scarce”.

As for `CC(C(=O)O)c1cccc(C(=O)c2ccccc2)c1` (centres unmarked) [Ketoprofene], the “Efficacy of present therapy” value in data set [1] (setting [3]) is given as “Nil”.

`CCN(CCO)CCCC(C)Nc1ccnc2cc(Cl)ccc12` (centres unmarked) [Hydroxychloroquine]: the “results of basic therapy (case history)” value in data set [1] (before the trial) is listed as “scarce results; also recorded: Disease still in acute phase”.

With `C[C@H](N)C(=O)NCC(=O)N[C@H]1CSSC[C@@H](C(=O)O)NC(=O)[C@H](CO)NC(=O)[C@H]([C@@H](C)O)NC(=O)[C@H](Cc2ccccc2)NC(=O)[C@H]([C@@H](C)O)NC(=O)[C@H](CCCCN)NC(=O)[C@H](Cc2c[nH]c3ccccc23)NC(=O)[C@H](Cc2ccccc2)NC(=O)[C@H](Cc2ccccc2)NC(=O)[C@H](CC(N)=O)NC(=O)[C@H](CCCCN)NC1=O` [Somatostatin], the clinical side effects entry in data set [2] was “No verifiable clinical side effects”.

(Values after US4966889A, “Treatment of inflammatory articular diseases” (Industria Farmaceutica Serono SpA, priority 1986, dated 1990).)
